The values that follow come from patent EP2730584B1, “PROTEIN-P[…] OBTAINED FROM NERVOUS TISSUE OF HOOFED LIVESTOCK EMBRYOS, PROCESS FOR PREPARING SAME AND PHARMACEUTICAL COMPOSITION” (Aktsionernoe Obschestvo "Pharm-Sintez", priority 2011, dated 2012).

In this series the test system is mice marrow cells.

Experimental: The study objective was detection and quantitative estimate of cytogenetic (mutagenic) activity of pharmacologic substances in polychromatophil cells (PCC) of mammal marrow. The method is based on microscopic recording of cells with micronuclei.
The experiments were performed to 2 months old male and female F1 (CBAx C57BI6/J) cross-breed mice weighing 18-20 g. Each group included 6 animals. The animals were kept at 12 hours light pattern with free food and water access. Animal experiments for assessment of mutagenic properties of the PPNC with single and five-time dosing were conducted in compliance with official records. Three sessions of experiments were carried out with corresponding controls: therapeutic dose was tested on male animals with a single introduction; subtoxic dose was tested on male animals with a single introduction; therapeutic dose was tested on male animals with a single introduction; subtoxic dose was tested on male animals and female with five-time introduction. […] The PPNC dosing for assessment of mutagenic activity was calculated based on the maximum human recommended daily therapeutic dose (TD). […] In order to calculate an experiment dosing for mice, a conversion factor is recommended that takes into account a human or animal body surface area to weight ratio. In our study, it was 8.33. Therefore, the mice TD was approximately 8.33 x human TD (0.42 mg/kg).
As a subtoxic dose, 10mg/kg, the maximum possible in this experiment conditions dosing was used, as the substance was presented in 0.1 mg/ml concentration, and the normally used amount of substance for mice is 0.1 ml per 10 g.
Seven animal groups were formed: four experimental groups and three corresponding reference groups. The substance in the amount of 0.1 mg/kg was introduced five times at 24 hours interval to males and females. […]
Marrow cell preparations for micronuclei count were made by a standard method in compliance with common guidelines [20]. […] 2,000 polychromatophil cells from each animal were analyzed in encoded preparations. […]

Consider `O=P1(N(CCCl)CCCl)NCCCO1` (stereo not drawn) [Cyclophosphamide, cyclophosphamide], for which the “frequency of micronucleus cells” value (20 mg/kg intraperitoneally, male mice, 3.16 % in reference) is 62.1%. For the same compound, the “increased frequency of micronucleus cells” value (20 mg/kg intraperitoneally, male mice, P<0.001) was found to be 19.6 times. Moreover, the “polychromatophilic to normochromatic erythrocytes ratio” value (20 mg/kg, compared to control P<0.005) is reported as “found to shift to the latter”.
